US20250195684A1, “DELIVERY METHODS USING PLATELETS” (Children's Hospital Medical Center, priority 2022, published 2025)

What was measured:
human iPSC line 1383D6 = experiment: Effect of cytochalasin B on platelet-based mCherry mRNA delivery; type: cell-based; details: 100 nM or 350 nM
Protocol: The effects of cytochalasin B (CytoB), which is an inhibitor of tunneling nanotubes, on platelet-based mRNA delivery were investigated in the exemplary human iPSC line 1383D6. The cells were plated at a density of 2×10^5 cells/well in a 12 well plate and grown overnight at 37° C. with 5% CO2. Platelets were loaded with 5 μg of mCherry mRNA using Lipofectamine MessengerMax as described herein. The mRNA loaded platelets were further prepared by centrifuging at 1800×g at room temperature for 10 min, washing with EBM, and resuspending in fresh 600 μL culture media. Then, 100 μL of the mRNA loaded platelets (corresponding to 0.8 μg mRNA/well) containing 100 nM or 350 nM CytoB (or without CytoB as control) was added to the cells in a total volume of 1 mL culture media. After 24 hour incubation at 37° C. with 5% CO2, fluorescent images were obtained with a BZ-X810 fluorescence microscope (Keyence) using a TRITC filter. Subsequently, the cells were harvested using 0.25% trypsin-EDTA solution, washed twice with PBS, and centrifuged. The cell pellet was dispersed using PBS containing 3% FBS, stained with LIVE/DEAD Fixable Green Dead Cell Stain Kit (Thermo Fisher Scientific) according to manufacturer's instructions. […] Relative value in mean fluorescence intensity (MFI) was calculated with respect to the control samples without CytoB.

HUVECs = experiment: Co-culture of MEG-01-GFP megakaryocyte-derived GFP-positive platelets with HUVECs (protein delivery); type: cell-based, human; details: 80 μM concentration
Protocol: In addition to nucleic acids such as mRNA, modified platelets were used to deliver protein. MEG-01 megakaryocytes were transduced with pLV-GFP lentivirus to induce expression of GFP (MEG-01-GFP). These megakaryocytes were cultured to produce GFP-positive platelets (FIG. 4A), which were co-cultured with HUVECs.
In a separate experiment, GFP-positive platelets were co-cultured with mCherry-expressing HUVECs.

293T cells = experiment: Screening of anchoring protein HA fusion constructs, PE anti-HA flow cytometry; type: cell-based; details: live cells, gated on eGFP
From the text: FIG. 15A depicts exemplary constructs used for the determination and identification of cell surface targeting ligands, which can be, for example, expressed on platelets to increase cell type specificity. The exemplary constructs involve custom TetOn expression vectors with left/right homologue arms to AAVS1. TetOn allows for conditional expression of targeting ligands or epitopes fused to the N- and C-termini of platelet cell surface markers (e.g. CD41, CD42a, CD61). Downstream cGFP through a P2A linker allows for successful identification of cells expressing the fusion vector. FIG. 15B depicts flow cytometry plots of 293T cells transfected with the exemplary N- or C-terminal fusion vectors depicted in FIG. 15A using CD41, CD42a, and CD61. Live cells were stained with a PE anti-HA fluorescent antibody and gated upon cGFP expression during flow cytometry analysis. PE fluorescence is shown against control (untransfected) 293T cells stained with PE anti-HA (shaded).

## C=C1[C@@H](C)[C@H]2[C@H](Cc3ccccc3)NC(=O)[C@]23OC(=O)/C=C/[C@H](O)CCC[C@@H](C)C/C=C/[C@H]3[C@@H]1O [CytoB, cytochalasin B]
Human iPSC line 1383D6
  effect on platelet-based mRNA delivery: Prevents Platelet-Based mRNA Delivery
Human iPSC line 1383D6; 24 hour
  cell death (MFI of green dead cell stain): does not cause cell death

## O=C(N/N=C/c1ccc(O)c(O)c1)c1cc2ccccc2cc1O [dynasore]
HUVECs
  transformation of HUVECs by platelets treated with inhibitor: unable to transform HUVECs

## C-terminal fusion of CD61 with an HA epitope: TetOn expression construct of platelet surface marker CD61 fused C-terminally to an HA epitope, with P2A eGFP
293T cells
  exposure of HA epitope on cell surface: robust exposure of the HA epitope on the 293T cell surface
293T cells; listed as C-terminal CD61-HA fusion construct
  exposure of HA epitope on cell surface: results in anti-HA fluorescence on the cell surface
